Like-named read-outs stand apart in the source and are kept apart here.
Test system: Ba/F3 ETV6-NTRK3-G696C cells
Assay: Proliferation of Ba/F3 ETV6-NTRK3-G696C cells (CellTiter-Glo)
Type: cell-based, mouse
Conditions: Mus musculus, separate test, read-out: Ba/F3 ETV6-NTRK3-G696C, IC50
From the text: Ba/F3 ETV6-NTRK3-G696C is a stable transgenic cell line constructed by KYinno Biotechnology Co., Ltd. on mouse primary B cell Ba/F3 wherein NTRK3 is highly expressed with a mutation of G at position […] to C and fused with ETV6 to form ETV6-NTRK3. • [Test method]: Promega's CellTiter-Glo® Luminescent Cell Viability Assay kit was used to evaluate the inhibitory activity of the compounds on the proliferation of Ba/F3 ETV6-NTRK3-G696C cells. • [Instrument]: Spectramax M3 multifunctional microplate reader from Molecular Devices. • [Test materials]: Ba/F3 ETV6-NTRK3-G696C cell line (constructed by KYinno Biotechnology Co., Ltd. (Beijing)), 96-well transparent flat-bottomed black-walled cell culture plate (Corning, cat #3603), RPMI-1640 media (GE, product number #SH30027.01), fetal bovine serum FBS (Thermo Fisher, cat #10099-141), CellTiter-Glo® Luminescent Cell Viability Assay kit (Promega, cat #G7572), PBS (Solarbio, cat #P1020), DMSO (Sigma, cat #D2650). • [Experimental procedure]: When resuscitating Ba/F3 ETV6-NTRK3-G696C cells, • the freezing tube was quickly shaken in a 37° C. water bath to melt within 1 minute. The thawed cell suspension was mixed uniformly with RPMI1640 medium containing 10% FBS, centrifuged at 1000 rpm for 5 minutes, and the supernatant discarded. 5 mL of complete medium (RPMI1640 medium with 10% FBS) was taken to resuspend the cell pellets, charged into a cell culture flask with a bottom area of 25 cm^2, and incubated in a cell incubator at 37° C., 95% humidity and 5% CO2. Cells were allowed to passage when the number of cells reached about 10^6 cells/mL. For cell passage, the old cell suspension was directly pipetted evenly, 1/5 of the cell suspension was kept, 4 mL of new complete medium was added, after pipetting evenly, the cell flask was placed in the cell incubator for further culturing. Cell plating was performed when the number of cells reached about 10^6 cells/mL again. For cell plating, 1/5 of the cell suspension was kept for further culturing as in the cell passage method, and the remaining 4/5 of the cell suspension was placed in a 15 mL centrifuge tube, detected for cell viability by Trypan blue exclusion method to ensure that cell viability was above 90%. A cell suspension with a density of 5.56×10^4 viable cells/mL was prepared with complete medium, and 90 μL of such cell suspension was added to a 96-well cell culture plate to obtain the cell density of 5000 viable cells/mL in the cell culture plate. A control group containing no cells, no compound and only complete medium (i.e. culture medium control) and a control group containing no compound but containing cells (i.e. cell control) were set. The cell plate was placed in a cell incubator overnight. The 10 mM compound stock solution in DMSO was first serially diluted with DMSO at a dilution factor of 3.16 times, to obtain 9 concentrations, and the 10th concentration was set as DMSO control without compound. Then, PBS was used to dilute the DMSO solutions of compounds of different concentrations, at a dilution factor of 100 times, so that the DMSO concentration in the compound solution of each concentration was 1%. Finally, 10 μL of each of the above solutions was added to the corresponding cell culture plate, so that the initial compound concentration was 10 μM, with the remaining concentrations being successively diluted at a dilution factor of 3.16 times, and the DMSO content in the cell culture plate was 0.1%. The cell plate was placed in a cell incubator and cultured for 72 hours. For endpoint detection, the CellTiter-Glo reagent was melted, and the cell plate was moved to room temperature to equilibrate for 30 minutes, added with 100 μL of CellTiter-Glo for each well, and shaken on an orbital shaker for 5 minutes to fully lyse the cells. […]

IC50 (BaF3, Table 7-1) [nM]	IC50 (BaF3, Table 7-2) [nM]	Compound
14		CCn1ncc2cc(Oc3ccc(NC(=O)c4ccc(C5CC5)n(-c5ccc(F)cc5)c4=O)cc3F)c(-c3cn[nH]c3)cc21 [Example 19, N-(3-fluoro-4-(1-ethyl-6-(1H-pyrazol-4-yl)-1H-indazol-5-yloxy)phenyl)-1-(4-fluorophenyl)-6-cyclopropyl-2-oxo-1,2-dihydropyridine-3-carboxamide]
	1.2	CC(C)Oc1ccc(C(=O)Nc2ccc(Oc3cc4cnn(C)c4cc3-c3cn[nH]c3)c(F)c2)c(=O)n1-c1ccc(F)cc1 [Example 16, N-(3-fluoro-4-(1-methyl-6-(1H-pyrazol-4-yl)-1H-indazol-5-yloxy)phenyl)-1-(4-fluorophenyl)-6-isopropoxy-2-oxo-1,2-dihydropyridine-3-carboxamide]

— US11952364B2, “TRK inhibitors useful as anticancer drugs” (TYLIGAND BIOSCIENCE (SHANGHAI) LIMITED, priority 2018, dated 2024)
